Data taken from ChEMBL document CHEMBL1201862, “PubChem BioAssay data set” (2004).
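Briefly, cells in 96-well plates were exposed to five compound concentrations for 48 h, and endpoints were estimated by linear interpolation. GI50 marks 50% less growth.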 Active and inactive are the calls of the source. No stated cut-off is given here; in the data, active = GI50 up to about 1.1 µM and inactive = higher.

Legend:
Test in all cases: NCI anticancer screen, dose series, 48 h
[1] = system: NCI-H23
[2] = system: HOP-62
[3] = system: SK-OV-3
[4] = system: DU-145
[5] = system: 786-0
[6] = system: SN12C
[7] = system: OVCAR-4
[8] = system: MOLT-4
[9] = system: PC-3
[10] = system: EKVX
[11] = system: OVCAR-8
[12] = system: SF-295
[13] = system: HOP-92
[14] = system: MDA-N
[15] = system: A498
[16] = system: OVCAR-3
[17] = system: SF-268
[18] = system: K562
[19] = system: SK-MEL-2
[20] = system: SR

Compound	GI50 [1]	GI50 [2]	GI50 [3]	GI50 [4]	GI50 [5]	GI50 [6]	GI50 [7]	GI50 [8]	GI50 [9]	GI50 [10]	GI50 [11]	GI50 [12]	GI50 [13]	GI50 [14]	GI50 [15]	GI50 [16]	GI50 [17]	GI50 [18]	GI50 [19]	GI50 [20]
C[C@@](Br)(C(=O)O)[C@H](Br)C(=O)O	> 100 µM (inactive)	> 100 µM (inactive)	> 100 µM (inactive)	> 100 µM (inactive)	> 100 µM (inactive)	> 100 µM (inactive)	> 100 µM (inactive)	> 100 µM (inactive)	> 100 µM (inactive)	83.4 µM (inactive)	> 100 µM (inactive)	> 100 µM (inactive)	> 100 µM (inactive)	> 100 µM (inactive)	> 100 µM (inactive)	> 100 µM (inactive)	> 100 µM (inactive)	> 100 µM (inactive)		
CCOC(=O)C(NCc1ccc2c(c1)OCO2)(NC(=O)c1ccccc1)C(F)(F)F (stereo not given)	62.2 µM (inactive)	> 100 µM (inactive)	> 100 µM (inactive)	> 100 µM (inactive)	> 100 µM (inactive)	> 100 µM (inactive)	76.7 µM (inactive)	18 µM (inactive)	65 µM (inactive)	86.1 µM (inactive)	> 100 µM (inactive)	> 100 µM (inactive)	41.9 µM (inactive)	> 100 µM (inactive)		> 100 µM (inactive)	> 100 µM (inactive)	44.4 µM (inactive)	> 100 µM (inactive)	36 µM (inactive)
COc1cccc(CSCC(=O)O)c1	> 100 µM (inactive)	> 100 µM (inactive)	> 100 µM (inactive)	> 100 µM (inactive)	> 100 µM (inactive)	> 100 µM (inactive)	> 100 µM (inactive)		> 100 µM (inactive)	> 100 µM (inactive)	> 100 µM (inactive)	> 100 µM (inactive)	> 100 µM (inactive)	> 100 µM (inactive)	> 100 µM (inactive)	> 100 µM (inactive)	> 100 µM (inactive)	> 100 µM (inactive)	> 100 µM (inactive)	
O=C(c1ccco1)n1c2ccc(Br)cc2c2nc3ccccc3nc21	23.7 µM (inactive)	16.1 µM (inactive)		40.6 µM (inactive)	18.7 µM (inactive)	> 100 µM (inactive)	48.1 µM (inactive)	22 µM (inactive)	50.4 µM (inactive)	34.5 µM (inactive)	35.2 µM (inactive)	72.8 µM (inactive)	30.5 µM (inactive)	> 100 µM (inactive)		47.5 µM (inactive)	27 µM (inactive)	38.4 µM (inactive)	34.1 µM (inactive)	> 100 µM (inactive)
O=C1CSC(c2c[nH]c3ccccc23)N1c1ccc(Cl)cc1Cl (stereo not given)	> 100 µM (inactive)	> 100 µM (inactive)	> 100 µM (inactive)	> 100 µM (inactive)	> 100 µM (inactive)	> 100 µM (inactive)	> 100 µM (inactive)	> 100 µM (inactive)	> 100 µM (inactive)	> 100 µM (inactive)	> 100 µM (inactive)	> 100 µM (inactive)	> 100 µM (inactive)	> 100 µM (inactive)		> 100 µM (inactive)	> 100 µM (inactive)	> 100 µM (inactive)		> 100 µM (inactive)
COc1cc(OCc2nc3ccccc3n3cccc23)cc(OC)c1OC	5.6 µM (inactive)	37.2 µM (inactive)	40.6 µM (inactive)	55.8 µM (inactive)	24.4 µM (inactive)	47 µM (inactive)	10.8 µM (inactive)	2.37 µM (inactive)	30.3 µM (inactive)	14.8 µM (inactive)	17.1 µM (inactive)	11.3 µM (inactive)	10 µM (inactive)	19.4 µM (inactive)	> 87.5 µM (inactive)	15 µM (inactive)	41.9 µM (inactive)	3.86 µM (inactive)	> 100 µM (inactive)	
COC(=O)c1ccc(CN2CCc3c([nH]c4ccccc34)C2CO)o1 (stereo not given)	> 10 µM (inactive)	> 10 µM (inactive)	> 10 µM (inactive)	> 10 µM (inactive)	> 10 µM (inactive)	> 10 µM (inactive)	> 10 µM (inactive)	> 10 µM (inactive)	> 10 µM (inactive)	> 10 µM (inactive)	> 10 µM (inactive)	> 10 µM (inactive)	> 10 µM (inactive)	> 10 µM (inactive)		> 10 µM (inactive)	> 10 µM (inactive)	> 10 µM (inactive)		> 10 µM (inactive)
CC1CCc2sc3nc(S)n(C)c(=O)c3c2C1 (stereo not given)	35.6 µM (inactive)	39.7 µM (inactive)	81.3 µM (inactive)	50.8 µM (inactive)	50.8 µM (inactive)	36.5 µM (inactive)	35.2 µM (inactive)	41.4 µM (inactive)	25.5 µM (inactive)	19 µM (inactive)	39.5 µM (inactive)	31.1 µM (inactive)	17.7 µM (inactive)	44 µM (inactive)		22.4 µM (inactive)	48.1 µM (inactive)	42.2 µM (inactive)	40.4 µM (inactive)	34 µM (inactive)
CC(C)(C)OC(=O)NCCC1SC2C=CC1C2 (stereo not given)	> 100 µM (inactive)	> 100 µM (inactive)	> 100 µM (inactive)	> 100 µM (inactive)	> 100 µM (inactive)	> 100 µM (inactive)	> 100 µM (inactive)	> 100 µM (inactive)	> 100 µM (inactive)	> 100 µM (inactive)	> 100 µM (inactive)	> 100 µM (inactive)	> 100 µM (inactive)	> 100 µM (inactive)	> 100 µM (inactive)	> 100 µM (inactive)	> 100 µM (inactive)	> 100 µM (inactive)	> 100 µM (inactive)	
COC(=O)/C=C\C(C#N)(C#N)/N=C/c1cccs1	9.14 µM (inactive)	17.6 µM (inactive)	19 µM (inactive)	10.7 µM (inactive)	14.2 µM (inactive)	14.7 µM (inactive)	5.82 µM (inactive)	0.982 µM (active)	13.1 µM (inactive)	9.77 µM (inactive)	3.76 µM (inactive)	18.8 µM (inactive)	1.84 µM (inactive)	8.22 µM (inactive)	19.9 µM (inactive)	11.1 µM (inactive)	15 µM (inactive)	3.95 µM (inactive)	18.5 µM (inactive)	
COC(=O)C1=C(\c2ccccc2)c2ccccc2C(=O)N(C2CCCCC2)/C=C\1	17.1 µM (inactive)	21.3 µM (inactive)	74.1 µM (inactive)	60 µM (inactive)	34.6 µM (inactive)	28.3 µM (inactive)	27.7 µM (inactive)	> 100 µM (inactive)	10.5 µM (inactive)	52.6 µM (inactive)	38.9 µM (inactive)	28 µM (inactive)	14.9 µM (inactive)	29.5 µM (inactive)	30.1 µM (inactive)	21.7 µM (inactive)	27.8 µM (inactive)	4.59 µM (inactive)	12.9 µM (inactive)	
c1ccc(C2=NCCc3cc4c(cc32)OCO4)cc1	> 100 µM (inactive)	> 100 µM (inactive)	> 100 µM (inactive)	> 100 µM (inactive)	> 100 µM (inactive)	> 100 µM (inactive)	> 100 µM (inactive)		> 100 µM (inactive)	> 100 µM (inactive)	> 100 µM (inactive)	> 100 µM (inactive)		> 100 µM (inactive)	> 100 µM (inactive)	> 100 µM (inactive)	> 100 µM (inactive)		> 100 µM (inactive)	> 100 µM (inactive)
O=[N+]([O-])c1ccccc1S(=O)(=O)c1cc(O)cc2c1NCCC2	19.9 µM (inactive)	21 µM (inactive)	17.9 µM (inactive)	20.7 µM (inactive)	12.1 µM (inactive)	21.1 µM (inactive)	15.3 µM (inactive)	4.23 µM (inactive)	14.7 µM (inactive)	16.7 µM (inactive)	11.8 µM (inactive)	25.3 µM (inactive)	0.612 µM (active)	17.8 µM (inactive)	13.9 µM (inactive)	7.55 µM (inactive)	20.7 µM (inactive)	2.68 µM (inactive)	23.7 µM (inactive)	
CC12c3c4cc(Br)cc3Oc3cc(Br)cc(c31)Oc1cc(Br)cc(c12)O4	57.1 µM (inactive)	60.4 µM (inactive)	> 100 µM (inactive)	16.4 µM (inactive)	19.8 µM (inactive)	31 µM (inactive)	> 100 µM (inactive)	23.1 µM (inactive)	21 µM (inactive)	19.7 µM (inactive)	55 µM (inactive)	> 100 µM (inactive)		41.1 µM (inactive)		12.4 µM (inactive)	10.5 µM (inactive)	44.4 µM (inactive)	23.1 µM (inactive)	15.1 µM (inactive)
COc1ccc(COCC[C@H](C)OC2OC(CO[Si](C)(C)C(C)(C)C)C(OC(=O)CCCN=[N+]=[N-])C(OC(=O)CCCN=[N+]=[N-])C2OC(=O)CCCN=[N+]=[N-])cc1 (stereo not given in full)	31.8 µM (inactive)	97.5 µM (inactive)	> 100 µM (inactive)	> 100 µM (inactive)	43.7 µM (inactive)	78.3 µM (inactive)	27.9 µM (inactive)		28.6 µM (inactive)	33.2 µM (inactive)	19.7 µM (inactive)	89.3 µM (inactive)	> 100 µM (inactive)	44.9 µM (inactive)	> 100 µM (inactive)	61.8 µM (inactive)	35.3 µM (inactive)		> 100 µM (inactive)	
